Experimental data from ChEMBL document CHEMBL5113518, “Discovery of a Novel G-Quadruplex and Histone Deacetylase (HDAC) Dual-Targeting Agent for the Treatment of Triple-Negative Breast Cancer” (J Med Chem, 2022).
Calls of active or inactive are those of the source. No cut-off for these calls is given here.

Columns and labels:
[1] = target: Quadruplex DNA; test: Binding affinity to 5' FAM-labeled c-myc G4-quadruplex DNA Pu22 (unknown origin) by fluorescence quench assay; assay type: nucleic-acid assay
[2] = Stabilization of DNA Pu22 (unknown origin ) single strand assessed as G4-quadruplex formation in absence of potassium ions by spectrum based circular dichroism analysis; conditions: dose <= 30.0 µM; DDE = dose-dependent effect
[3] = system: MDA-MB-231; test: Antitumor activity against human MDA-MB-231 cells xenografted in BALB/c-nu/nu mouse assessed as tumor growth inhibition at 10 mg/kg, ip measured for 31 days; assay type: functional; conditions: MDA-MB-231, 744 h, time 31 day, read-out: TGI
[4] = system: BT-549; test: Cytotoxicity against human BT-549 cells harboring wild type BRCA1 and wild type BRCA2 assessed as reduction in cell viability; assay type: functional, cell-based
[5] = target: Quadruplex DNA; test: Binding affinity to 5' FAM-labeled c-myc G4-quadruplex DNA Pu22 (unknown origin) assessed as dissociation constant by surface plasmon resonance assay; assay type: nucleic-acid assay
[6] = target: Histone deacetylase; test: Inhibition of HDAC in human MDA-MB-231 cells incubated for 45 mins by luminescence assay; assay type: cell-based
[7] = system: Quadruplex DNA; test: Binding affinity to 5' FAM and 3' TAMRA-labeled c-myc G4-quadruplex DNA duplex (unknown origin) assessed as change in melting temperature by fluorescence resonance energy transfer assay; assay type: nucleic-acid assay
[8] = system: MDA-MB-231; test: Antitumor activity against human MDA-MB-231 cells xenografted in BALB/c-nu/nu mouse assessed as increment ratio at 10 mg/kg, ip measured for 31 days; assay type: functional; conditions: time 31 day
[9] = Stabilization of DNA Pu22 (unknown origin ) single strand assessed as G4-quadruplex formation up to 30 uM in presence of potassium ions by spectrum based circular dichroism analysis
[10] = system: Quadruplex DNA; test: Binding affinity to 5' FAM and 3' TAMRA-labeled c-myc G4-quadruplex DNA HTG21 (unknown origin) assessed as change in melting temperature by fluorescence resonance energy transfer assay; assay type: nucleic-acid assay
[11] = target: Quadruplex DNA; test: Binding affinity to 5' FAM-labeled c-myc G4-quadruplex DNA HTG21 (unknown origin) assessed as dissociation constant by surface plasmon resonance assay; assay type: nucleic-acid assay
[12] = system: SUM-159-PT; test: Cytotoxicity against human SUM159PT cells harboring wild type BRCA1 and wild type BRCA2 assessed as reduction in cell viability; assay type: functional, cell-based
[13] = target: Quadruplex DNA; test: Binding affinity to 5' FAM-labeled […] (unknown origin) assessed as dissociation constant by surface plasmon resonance assay; assay type: nucleic-acid assay
[14] = system: MDA-MB-468; test: Cytotoxicity against human MDA-MB-468 cells harboring wild type BRCA1 and BRCA2 mutant reduction in assessed as cell viability; assay type: functional, cell-based
[15] = system: Quadruplex DNA; test: Binding affinity to 5' FAM and 3' TAMRA-labeled […] (unknown origin) assessed as change in melting temperature by fluorescence resonance energy transfer assay; assay type: nucleic-acid assay
[16] = system: Quadruplex DNA; conditions: dose 1.0 µM
Description: Binding affinity to 5' FAM and 3' TAMRA-labeled c-myc G4-quadruplex DNA Pu22 (unknown origin) assessed as change in melting temperature at 1 uM by fluorescence resonance energy transfer assay

[17] = system: MDA-MB-231; test: Cytotoxicity against human MDA-MB-231 cells harboring wild type BRCA1 and wild BRCA2 assessed as reduction in cell viability; assay type: functional, cell-based
[18] = target: Histone deacetylase; test: Inhibition of HDAC in human HeLa nuclear extract incubated for 30 mins by fluorescence-based Glo-luminescence assay; assay type: cell-based

SMILES	DC50 [1]	ΔTm [16]	IC50 [18]	also measured
CN1CCN(c2cc3nc4n(c(=O)c3cc2F)CC/C4=C\c2ccc(C(=O)Nc3ccccc3N)cc2)CC1	200 nM	0.3 °C	–	–
CN1CCN(c2cc3nc4n(c(=O)c3cc2F)CC/C4=C\c2ccc(C(=O)NO)cc2)CC1	2900 nM	5.7 °C	–	–
O=C(CCCCCCC(=O)Nc1ccccc1)NO [VORINOSTAT]	–	–	–	IC50 [4]: 2.3 µM; T/C [8]: 39.3%; IC50 [14]: 2.3 µM
Nc1ccccc1NC(=O)c1ccc(/C=C2\CCn3c2nc2cc(NCCCN4CCCC4)c(F)cc2c3=O)cc1	600 nM	0.6 °C	8.6 µM	–
CN(C)CCCNC(=O)c1ccc(/C=C2\CCn3c2nc2cc(N4CCN(CCCCC(=O)NO)CC4)c(F)cc2c3=O)cc1.Cl	800 nM	16.7 °C	1.5 µM	–
CN(C)CCCNc1cc2nc3n(c(=O)c2cc1F)CC/C3=C\c1ccc(C(=O)Nc2ccccc2N)cc1	200 nM	2.3 °C	5.8 µM	–
CN(C)CCCNC(=O)c1ccc(/C=C2\CCn3c2nc2cc(N4CCN(Cc5ccc(/C=C/C(=O)Nc6ccccc6N)cc5)CC4)c(F)cc2c3=O)cc1	300 nM	0.7 °C	8.1 µM	–
Cl.O=C(CCCCCCNC(=O)c1ccc(/C=C2\CCn3c2nc2cc(NCCCN4CCCC4)c(F)cc2c3=O)cc1)NO	3000 nM	3.2 °C	0.05 µM	–
CN(C)CCCNC(=O)c1ccc(/C=C2\CCn3c2nc2cc(N4CCN(Cc5ccc(/C=C/C(=O)NO)cc5)CC4)c(F)cc2c3=O)cc1.Cl	200 nM	1.8 °C	1.9 µM	–

Now from value to compound, other results behind:

DC50 [1]	ΔTm [16]	IC50 [18]	SMILES	also measured
1400 nM	17.4 °C	–	CCN(CC)CCCNC(=O)c1ccc(/C=C2\CCn3c2nc2cc(NCCCN4CCCC4)c(F)cc2c3=O)cc1	Activity [2]: Dde; inhibition in vivo at 10 mg/kg [3]: 48.2%; IC50 [4]: 14.6 µM; Kd [5]: 1800 nM; IC50 [6]: > 10 µM; ΔTm [7]: 1.8 °C; T/C [8]: 69.7%; Activity [9]: Active; ΔTm [10]: 7.3 °C; Kd [11]: > 10 µM; IC50 [12]: 47.3 µM; Kd [13]: 3.6 µM; IC50 [14]: 47.1 µM; ΔTm [15]: 6.4 °C; IC50 [17]: 10.7 µM
1300 nM	16.4 °C	–	CN(C)CCCNC(=O)c1ccc(/C=C2\CCn3c2nc2cc(N4CCN(CCCC(=O)NO)CC4)c(F)cc2c3=O)cc1	–
1700 nM	15.9 °C	2.1 µM	CN(C)CCCNC(=O)c1ccc(/C=C2\CCn3c2nc2cc(N4CCN(CCCCCCC(=O)NO)CC4)c(F)cc2c3=O)cc1.Cl	–
1200 nM	8.2 °C	–	CN(C)CCCNC(=O)c1ccc(/C=C2\CCn3c2nc2cc(N4CCN(CCCCCCCC(=O)Nc5ccccc5N)CC4)c(F)cc2c3=O)cc1	–
300 nM	7.2 °C	0.07 µM	CN(C)CCCNC(=O)c1ccc(/C=C2\CCn3c2nc2cc(NCCCCCCC(=O)NO)c(F)cc2c3=O)cc1.Cl	–
–	0.1 °C	–	Nc1ccccc1NC(=O)c1ccc(CNC(=O)OCc2cccnc2)cc1	–
200 nM	4.3 °C	2.5 µM	CN(C)CCCNC(=O)c1ccc(/C=C2\CCn3c2nc2cc(N4CCN(Cc5ccc(C(=O)NO)cc5)CC4)c(F)cc2c3=O)cc1.Cl	–
900 nM	17.3 °C	1.6 µM	CN(C)CCCNC(=O)c1ccc(/C=C2\CCn3c2nc2cc(N4CCN(CCCCCC(=O)NO)CC4)c(F)cc2c3=O)cc1.Cl	–
900 nM	4.4 °C	0.06 µM	CN(C)CCCNC(=O)c1ccc(/C=C2\CCn3c2nc2ccc(OCCCCCCC(=O)NO)cc2c3=O)cc1.Cl	–
